# In patent publication US20180369264A1, “COMBINATION OF A CARDIAC STEROID AND AN AKT INHIBITOR FOR THE TREATMENT OF CARDIOVASCULAR DISEASES AND DISORDERS” (YISSUM RESEARCH DEVELOPMENT COMPANY OF THE HEBREW …, priority 2015, published 2018):
# Where “and” joins values, the source holds several entries; their conditions need not be identical. Equal entries are not always repeated. Where two headings read alike, the source gives them in different places.
# Experiments:
# Akt = tested on: Akt; parameters: scale not given here; conditions: class symbols, key not given; cited from earlier work
# [1] = tested on: primary adult zebrafish cardiomyocytes; assay: Primary adult zebrafish cardiomyocyte contractility; assay type: cell-based
# Description: Adult (4 to 12-month-old) ventricular myocytes were obtained by enzymatic dissociation (with collagenase II and IV, at 5 mg/ml, each). The zebrafish were stunned by a blow to the head and the brain was pithed. The heart was quickly removed and placed in a small Petri dish containing 10 ml isolation solution: 100 mM NaCl, 10 mM KCl, 1.2 mM KH2PO4, 4 mM MgSO4, 50 mM taurine, 20 mM glucose, and 10 mM Hepes, pH 6.9. The ventricle was cut free from the bulbus and atrium under a binocular. Ventricles from 3 fish were incubated for 45 minutes at 32° C. in a solution containing perfusion buffer (150 mM NaCl, 5.4 mM KCl, 1.5 mM MgSO4, 0.4 mM NaH2PO4, 2 mM CaCl2, 10 mM glucose, and 10 mM Hepes, pH 7.7). Collagenases II and IV (Gibco, NY, USA, 5 mg/ml each) and additional CaCl2 (2.012 mM final concentration) were added. Following Eppendorf centrifugation (1 minute, 250×g at room temperature) the precipitated cells were suspended in 1 ml perfusion buffer for 30 minutes at room temperature before use.
# Cells were transferred to a chamber with a quartz base and examined using an inverted epifluorescence microscope (Nikon Diaphot 200, Japan). The myocytes were field-stimulated (0.5 Hz, 70 V, square waves) and contractions were measured using a video motion edge detector (Crescent Electronics, Sandy, Utah, USA) at the rate of 5 Hz. Cardiomyocyte performance was calculated as the percentage of resting cell length. The slopes of contraction and relaxation (+dL/dt and −dL/dt) were calculated from the linear portions of the changes in contractility. 9 cells per each group were measured. Each of the experiments was repeated at least 3 times with identical results.
# ERK = ERK phosphorylation in adult zebrafish heart (Western blot); assay type: in vivo; conditions: adult zebrafish heart, control experiments
# Description: Adult zebrafish (˜12-months-old) were transferred to swimming medium containing 1 μM of CS drugs, as specified in the following examples. At various time points (5-30 min), as indicated in the following examples, the zebrafish were transferred to perfusion buffer and the hearts were immediately removed and transferred to RIPA lysis buffer (Sigma-Aldrich), and protease inhibitor cocktail (P8340, Sigma-Aldrich), at a 1:100 dilution). The tissue was homogenized in an ultrasonic homogenizer (Microson, NY, USA) and aliquots of the homogenate were stored at −70° C. until used.
# Protein dilution and separation on SDS-PAGE electrophoresis, their transfer to a polyvinylidene fluoride membrane were carried out. […] The membranes were washed with TBS containing 0.1% Tween and exposed to horseradish peroxidase-conjugated secondary goat anti-rabbit IgG antibody (1:50,000). The membranes were stripped prior to their exposure to a different antibody. Detection was carried out with the aid of a Luminata™ Crescendo Western HRP Substrates, according to the manufacturer's instructions.
# [2] = tested on: wild-type zebrafish larvae heart; assay type: in vivo, zebrafish (Danio rerio); conditions: for effect on force of contraction / effect on heart rate: 1 nM
# Description: Experiments were performed on wild-type (WT, AB strain) zebrafish (Danio rerio). The fish were maintained in accordance with the principles established by the NIH. […] The fish were kept in swimming medium (E3 medium) in small aquaria at 28° C. and maintained under a 14h: 10h light:dark cycle. The zebrafish larvae were maintained in the presence of 0.1% methylene blue (M9140, Sigma-Aldrich Inc, Israel) at 28° C. All measurements were taken in embryos at 72 hours post fertilization (hpf).
# Ouabain, bufalin, digoxin, acetylcholine, carbachol, […] (pp2) and U0126 (1,4-diamino-2,3-dicyano-1,4-bis(2-aminophenylthio)butadiene) were purchased from Sigma-Aldrich Inc., Israel. The compounds were dissolved in egg water (0.3 g Instant Ocean Salt in distilled water) to a final selected concentration, as specified in the following examples. […]
# (§1) Filming process Zebrafish larvae heart imaging was performed using an Olympus CKX41 (Japan) […] microscope with ×10 or ×20 magnification, and integrated incandescent illumination. A FastCam imi-tech (Korea) high speed digital camera with 640×480 pixel gray scale image sensor was mounted on the microscope, using ImCam software (IMI Technology, Co. Ltd) for high speed video recording. The larvae were anesthetized by placing them in filming/anesthetizing medium. Each larva in 0.5 ml filming/anesthetizing medium was transferred to a 96-well tissue culture plate at room temperature and sequential images of the heart were obtained, with the larvae positioned on their side, at 80 fps during 10 seconds with a shutter speed of 0.016 seconds.
# Physiological parameters of cardiovascular performance, as indicated hereinbelow, were evaluated in the zebrafish larvae. Image analysis applications ImageJ (NIH, USA) were used, allowing the delineation of the endomyocardial border at the end of systole or end of diastole to define the ventricular area. Sequential still frames were analyzed to capture ventricular end-systole and end-diastole images. End Systolic Area (ESA, FIG. 1B) and End Diastolic Area (EDA, FIG. 1C) were used to calculate Fractional Area Change (FAC), according to the equation: FAC=(EDA-ESA)/EDA*100. The Ejection Fraction (EF) was determined by an independent estimate of ventricular volume. This was achieved by placing scan lines across the midventricular short axis (SA) and long axis (LA) at the end of systole (FIG. 1D) and diastole (FIG. 1E). […] EF was then calculated according to the equation: EF=(EDV-ESV)/EDV*100. Heart rate (HR) was measured in beats per minute. Cardiac output (CO) was calculated according to the equation: CO=(EDV-ESV)*HR. A minimum of five sequential pairs of systolic and diastolic cycles were measured and analyzed in 9-12 larvae for each treatment.
# [3] = tested on: zebrafish accordion mutant (acc) larvae heart; assay: In-vivo heart contractility measurements in zebrafish acc mutant larvae; parameters: species or system zebrafish (Danio rerio); conditions: 1 nM, 90 minutes
# Description: Ouabain, bufalin, digoxin, acetylcholine, carbachol, […] (pp2) and U0126 (1,4-diamino-2,3-dicyano-1,4-bis(2-aminophenylthio)butadiene) were purchased from Sigma-Aldrich Inc., Israel. The compounds were dissolved in egg water (0.3 g Instant Ocean Salt in distilled water) to a final selected concentration, as specified in the following examples. The larvae in 20 μL of E3 medium were transferred to the egg water solution containing one or two of the above specified drugs of choice, and incubated for 60-90 minutes at 28° C.
# as §1
# Physiological parameters of cardiovascular performance, as indicated hereinbelow, were evaluated in the zebrafish larvae. […] Sequential still frames were analyzed to capture ventricular end-systole and end-diastole images. […] The Ejection Fraction (EF) was determined by an independent estimate of ventricular volume. […] EF was then calculated according to the equation: EF=(EDV-ESV)/EDV*100. Heart rate (HR) was measured in beats per minute. Cardiac output (CO) was calculated according to the equation: CO=(EDV-ESV)*HR. A minimum of five sequential pairs of systolic and diastolic cycles were measured and analyzed in 9-12 larvae for each treatment.
# [4] = in vivo; cited from earlier work
# [5] = wt, ERK inhibitor experiment, 0.1 nM Oua, 10 nM PD98059, 20 minutes, 0.5 Hz
smiles,measurement,setting,value
"C=CCc1ccc(O)c(-c2ccc(O)c(CC=C)c2)c1 [Honokiol, 2-(4-hydroxy-3-prop-2-enylphenyl)-4-prop-2-enylphenol]",Akt,Akt,✓
"CCCCCCCCCCCCCCCCOP(=O)([O-])OCC[N+](C)(C)C [Miltefosine, hexadecyl 2-(trimethylazaniumyl)ethyl phosphate]",Akt,Akt,✓
"COc1cccc(-c2cc(=O)c3ccccc3o2)c1N [PD98059, 2′-amino-3′-methoxyflavone]","amplitude of cell contraction, inhibitor alone",[1]; 10 nM PD98059,did not affect the amplitude of cell contraction
same,"contractility and relaxation rise time, inhibitor alone",[1]; 10 nM PD98059,increased contractility and relaxation rise time
same,ouabain-induced increases in all contractility parameters in the presence of the inhibitor,"[1]; 10 nM PD98059, 0.1 nM ouabain",completely prevented
same,Amplitude,[1]; [5],0.13 ± 0.01
same,Contraction Rate (−dv/dt),[1]; [5],0.87 ± 0.09
same,Relaxation Rate (+dv/dt),[1]; [5],0.78 ± 0.14
same,effect on CS-induced increase in ERK phosphorylation,ERK,inhibit the CS-induced increase in ERK phosphorylation
CC(C)(C)n1nc(-c2ccc(Cl)cc2)c2c(N)ncnc21 [PP2],effect of inhibitor alone on heart function / basal contractility,"[2]; PP2 50 nM, U0126 1 μM, MK-2206 10 nM for 2 hours",did not affect heart function
same,effect on CS-induced increase in contractility,"[2]; inhibitor 30 minutes (PP2 50 nM; U0126 1 μM), then CS, measured 90 minutes later",completely abolished the CS-induced increase in contractility
"Cc1ccccc1CN1C2=NCCN2C(=O)C2=C1CCN(Cc1ccccc1)C2 [TIC10 Analogue, 2,6,7,8,9,10-hexahydro-10-[(2-methylphenyl)methyl]-7-(phenylmethyl)-imidazo[1,2-a]pyrido[4,3-d]pyrimidin-5(3H)-one]",Akt,Akt,✓
"Cc1ccccc1CN1C(=O)C2=C(CCN(Cc3ccccc3)C2)N2CCN=C12 [TIC10, 2,4,6,7,8,9-hexahydro-4-[(2-methylphenyl)methyl]-7-(phenylmethyl)-imidazo[1,2-a]pyrido[3,4-e]pyrimidin-5(1H)-one]",Akt,Akt,✓
"N#CC(=C(N)Sc1ccccc1N)C(C#N)=C(N)Sc1ccccc1N [U0126, 1,4-diamino-2,3-dicyano-1,4-bis(2-aminophenylthio)butadiene]",effect of inhibitor alone on heart function / basal contractility,"[2]; zebrafish, in vivo",did not affect basal contractility
same,effect on CS-induced increase in contractility,"[2]; zebrafish, in vivo",prevented the CS-induced increase in contractility
same,effect on CS-induced increase in ERK phosphorylation,ERK,inhibit the CS-induced increase in ERK phosphorylation
CNC[C@H](O)c1ccc(O)c(O)c1 [adrenalin],effect on heart contractility and rate,"[2]; zebrafish, in vivo",significant increase in heart contractility and rate
same,effect on heart force of contraction and rate,"[2]; zebrafish, in vivo",increase in heart contractility and rate
same,increase in CO,"[2]; zebrafish, in vivo",18.34±1.97% and 30.48±2.67%
"C[C@]12CC[C@H](O)C[C@H]1CC[C@@H]1[C@@H]2CC[C@]2(C)[C@@H](c3ccc(=O)oc3)CC[C@]12O [bufalin, 5-[(3 S,5R,8R,9S,10S,13R,14S,17R)-3,14-dihydroxy-10,13-dimethyl-1,2,3,4,5,6,7,8,9,11,12,15,16,17-tetradecahydrocyclopenta[a]phenanthren-17-yl]pyran-2-one]",effect on force of contraction,[2],increased significantly the force of contraction
same,effect on heart rate,[2],without affecting heart rate
same,concentration producing a significant increase in heart contractility,[2]; added to larvae swimming medium,0.1 nM
same,effect on heart contractility,[3],no effect on heart contractility
C[N+](C)(C)CCOC(N)=O [carbachol],reduction in cardiac output (CO),"[2]; 1 μM, 90 minutes, wt larvae",10.39±2.2%
same,reduction in cardiac output (CO),"[2]; 10 μM, 90 minutes, wt larvae",16.92±3%
same,effect on heart force of contraction and rate,"[2]; 1 and 10 μM, 90 minutes, wt larvae",decreased the heart force of contraction and rate
"C[C@H]1O[C@@H](O[C@@H]2[C@@H](O)C[C@H](O[C@@H]3[C@@H](O)C[C@@H](O[C@H]4CC[C@@]5(C)[C@H](CC[C@@H]6[C@@H]5C[C@@H](O)[C@]5(C)C(C7=CC(=O)OC7)CC[C@]65O)C4)O[C@@H]3C)O[C@@H]2C)C[C@H](O)[C@H]1O (stereo partly drawn) [digoxin, 4-[(3 S,5R,8R,9S,10S,12R,13 S, 14S)-3-[(2S,4S,5R,6R)-5-[(2S,4S,5R,6R)-5-[(2S,4S,5R,6R)-4,5-dihydroxy-6-methyl-oxan-2-yl]oxy-4-hydroxy-6-methyl-oxan-2-yl]oxy-4-hydroxy-6-methyl-oxan-2-yl]oxy-12,14-dihydroxy-10,13-dimethyl-1,2,3,4,5,6,7,8,9,11,12,15,16,17-tetradecahydrocyclopenta[a]phenanthren-17-yl]-5H-furan-2-one]",effect on force of contraction,[2],increased significantly the force of contraction
same,effect on heart rate,[2],without affecting heart rate
same,"concentration required for a similar effect, relative to bufalin or ouabain",[2]; vs 0.1 nM bufalin or ouabain,about tenfold
same,effect on heart contractility,[3],no effect on heart contractility
same,plasma concentration at which significant signs of toxicity are observed,[4],3 nM
same,plasma concentration considered beneficial,[4],about 1 nM
